Assays:
Format in all cases: physicochemical
Conditions in all cases: magnesium oxide raw material
[1] = Bulk density, 100 mL stainless steel cup
Description: The bulk density of magnesium oxide particles to be used in the present invention may be set to an upper limit of 0.8 g/mL or less, or 0.7 g/mL or less, since too high a density may cause a decrease in hardness. On the other hand, since too low bulk density may cause capping and lamination, the lower limit may be 0.1 g/mL or more, or 0.2 g/mL or more. Bulk density can be measured, e.g., using a 100 mL stainless steel cup (actual mass value (g)/100 (mL)).
(§1) The physical properties of the magnesium oxide used in these examples were measured, and the results were as follows. • Average particle size: 7.691 μm (measured according to laser diffraction scattering using a Microtrac Bell MT3300 EX2) • Bulk density: 0.249 g/mL (measured with 100 mL stainless steel cup (actual mass value (g)/100 (mL)) • Angle of repose: 41.7° (measured using MT-1 Multitester from Seishin Enterprise Co., Ltd.)
The weighed raw materials of magnesium oxide and internal additives were put into a polyethylene bag (1100 mm×600 mm) and mixed by shaking the bag 30 times from side to side. After the mixing, the bulk density was measured using a 100 mL stainless steel cup (actual mass value (g)/100 (mL)).
[formula] […]

[2] = Average particle size of magnesium oxide, laser diffraction scattering, MT3300 EX2
Description: The average particle size and average particle diameter of the magnesium oxide particles of the present invention and magnesium hydroxide particles used as raw materials therefor can be measured according to laser diffraction scattering method with a commonly used instrument, such as a particle size analyzer (MT3300EX2 from Microtrac Bell Corporation).
as §1

[3] = Angle of repose, Multitester MT-1
Description: The angle of repose of magnesium oxide particles to be used in the present invention may be set to an upper limit of 50° or less, or 48° or less, since an excessively large angle of repose may lead to a variation in the mass of the resulting tablets during tableting due to deteriorated flowability. On the other hand, the lower limit of the angle of repose is not specified because the lower the angle of repose, the better. The angle of repose can be measured, e.g., using Multitester MT-1 from Seishin Enterprise Co., Ltd.
as §1
After mixing, the following items were evaluated. • Bulk density: Measured with 100 mL stainless steel cup (actual mass value (g)/100 (mL) • Angle of repose: Measured using MT-1 Multitester from Seishin Enterprise Co., Ltd.

[O]=[Mg] [Magnesium oxide]
Bulk density [1]: 0.249 g/mL | Average particle size [2]: 7.691 μm | Angle of repose [3]: 41.7 °
